Experimental data as given in patent US9708314B2, “Heterocyclic amide compound” (NISSAN CHEMICAL INDUSTRIES, LTD., priority 2013, dated 2017).

Tests used:
Format in all cases: in vivo
[1] = tested on: transplanted Oryza sativa; experiment: Test Example 1: effect on crop, application before weed generation in submerged conditions; details: Seventeenth Table
How it was run: (§1)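 Alluvial soil in Wagner pots flooded to 4 cm water depth; weed seeds sown and 2.5 leaf stage rice seedlings transplanted. Emulsion diluted in water applied to water surface on sowing day at stated g/ha. Greenhouse 25° C. to 30° C.; effects scored 0–5 by herbicidal ratio after three weeks.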

[2] = tested on: Cyperus difformis; experiment: Test Example 3: herbicidal effect by application to foliage (Wagner pot, water depth 0.1-0.5 cm); details: Nineteenth Table
How it was run: (§2)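 Rice-field weeds and directly sown rice were grown 14 days in flooded alluvial soil (water depth 0.1–0.5 cm) at 25–30 °C in a greenhouse. An emulsion formulation diluted to the stated g/ha rate was sprayed onto stems and leaves. Effects were scored on a 0–5 scale (herbicidal ratio bands) three weeks after treatment.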

[3] = tested on: Leptochloa chinensis; experiment: as above; details: Nineteenth Table
How it was run: as §2

[4] = tested on: Echinochloa crus-galli var. crus-galli; experiment: as above; details: Nineteenth Table
How it was run: as §2

[5] = tested on: Echinochloa oryzacola Vasing.; experiment: Test Example 1: herbicidal activity, application before weed generation in submerged conditions; details: Seventeenth Table
How it was run: as §1

[6] = tested on: Scirpus juncoides; experiment: as above; details: Seventeenth Table
How it was run: as §1

[7] = tested on: Monochoria vaginalis; experiment: as above; details: Seventeenth Table
How it was run: as §1

[8] = tested on: directly sowed Oryza sativa; experiment: Test Example 3: effect on crop by application to foliage (Wagner pot, water depth 0.1-0.5 cm); details: Nineteenth Table
How it was run: as §2

[9] = tested on: Stellaria media; experiment: Test Example 4: herbicidal effect by application to foliage (diluvial soil, plastic box); details: for P (Stellaria media) herbicidal effect: application to foliage, application herbicide amount 320 g/ha
How it was run: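 Scores run from 0 (herbicidal ratio ≤5%) to 5 (≥90%, almost fully withered) and were assessed three weeks after foliar spraying. Seedlings had been raised for 14 days at 25-30° C in sterilized diluvial soil before treatment, with the emulsion diluted in water to the stated g/ha dose.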

[10] = Application herbicide amount 320 g/ha
[11] = application herbicide amount 400 g/ha
[12] = application herbicide amount 320 g/ha
[13] = Application herbicide amount 192 g/ha
[14] = application to foliage, application herbicide amount 192 g/ha

Cc1nnc(NC(=O)c2ccc(C(F)(F)F)n3c(C(C)C)nnc23)o1 [1-004, 3-Isopropyl-N-(5-methyl-1,3,4-oxadiazol-2-yl)-5-(trifluoromethyl)-[1,2,4]triazolo[4,3-a]pyridine-8-carboxamide]
a: transplanted Oryza sativa (effect on crop grade) [1, 10]: 1 (Herbicidal ratio of 5% or more and less than 20%) | E (Cyperus difformis) herbicidal ratio grade [2, 11]: 5 (Herbicidal ratio of 90% or more (almost completely withered)) | D (Leptochloa chinensis) herbicidal ratio grade [3, 11]: 5 (Herbicidal ratio of 90% or more (almost completely withered)) | H (Echinochloa crus-galli var. crus-galli) herbicidal ratio grade [4, 11]: 4 (Herbicidal ratio of 70% or more and less than 90%) | A: Echinochloa oryzicola Vasing. (herbicidal effect grade) [5, 10]: 5 (Herbicidal ratio of 90% or more (almost completely withered)) | B: Scirpus juncoides (herbicidal effect grade) [6, 10]: 4 (Herbicidal ratio of 70% or more and less than 90%) | C: Monochoria vaginalis (herbicidal effect grade) [7, 10]: 4 (Herbicidal ratio of 70% or more and less than 90%) | b (directly sowed Oryza sativa) effect on crop grade [8, 11]: 0 (Herbicidal ratio of 5% or less (almost no effect)) | P (Stellaria media) herbicidal effect [9]: 5 (Herbicidal ratio of 90% or more (almost completely withered))

Cc1nnc(NC(=O)c2ccc(C(F)(F)F)n3c(C4=NOC(C)(C)C4)nnc23)o1 [1-029]
a: transplanted Oryza sativa (effect on crop grade) [1, 10]: 2 (Herbicidal ratio of 20% or more and less than 40%) | E (Cyperus difformis) herbicidal ratio grade [2, 12]: 4 (Herbicidal ratio of 70% or more and less than 90%) | D (Leptochloa chinensis) herbicidal ratio grade [3, 12]: 5 (Herbicidal ratio of 90% or more (almost completely withered)) | H (Echinochloa crus-galli var. crus-galli) herbicidal ratio grade [4, 12]: 4 (Herbicidal ratio of 70% or more and less than 90%) | A: Echinochloa oryzicola Vasing. (herbicidal effect grade) [5, 10]: 5 (Herbicidal ratio of 90% or more (almost completely withered)) | B: Scirpus juncoides (herbicidal effect grade) [6, 10]: 3 (Herbicidal ratio of 40% or more and less than 70%) | C: Monochoria vaginalis (herbicidal effect grade) [7, 10]: 4 (Herbicidal ratio of 70% or more and less than 90%) | b (directly sowed Oryza sativa) effect on crop grade [8, 12]: 4 (Herbicidal ratio of 70% or more and less than 90%) | P (Stellaria media) herbicidal effect [9]: 5 (Herbicidal ratio of 90% or more (almost completely withered))

Cc1cc(C(=O)Nc2nnnn2C)c2nnc(C(C)C)n2c1C(F)(F)F [2-050]
a: transplanted Oryza sativa (effect on crop grade) [1, 13]: 2 (Herbicidal ratio of 20% or more and less than 40%) | E (herbicidal effect grade) [2, 14]: 3 (Herbicidal ratio of 40% or more and less than 70%) | D (herbicidal effect grade) [3, 14]: 3 (Herbicidal ratio of 40% or more and less than 70%) | H (herbicidal effect grade) [4, 14]: 4 (Herbicidal ratio of 70% or more and less than 90%) | A: Echinochloa oryzicola Vasing. (herbicidal effect grade) [5, 13]: 4 (Herbicidal ratio of 70% or more and less than 90%) | B: Scirpus juncoides (herbicidal effect grade) [6, 13]: 2 (Herbicidal ratio of 20% or more and less than 40%) | C: Monochoria vaginalis (herbicidal effect grade) [7, 13]: 3 (Herbicidal ratio of 40% or more and less than 70%) | b (effect on crop grade) [8, 14]: 0 (Herbicidal ratio of 5% or less (almost no effect)) | P (Stellaria media) herbicidal effect grade ([9]; foliage application, 192 g/ha): 3 (Herbicidal ratio of 40% or more and less than 70%)

Cc1nnc(NC(=O)c2ccc(C(F)(F)F)n3c(CS(C)(=O)=O)nnc23)o1 [1-037]
a: transplanted Oryza sativa (effect on crop grade) [1, 10]: 0 (Herbicidal ratio of 5% or less (almost no effect)) | E (Cyperus difformis) herbicidal ratio grade [2, 12]: 5 (Herbicidal ratio of 90% or more (almost completely withered)) | D (Leptochloa chinensis) herbicidal ratio grade [3, 12]: 5 (Herbicidal ratio of 90% or more (almost completely withered)) | H (Echinochloa crus-galli var. crus-galli) herbicidal ratio grade [4, 12]: 5 (Herbicidal ratio of 90% or more (almost completely withered)) | A: Echinochloa oryzicola Vasing. (herbicidal effect grade) [5, 10]: 0 (Herbicidal ratio of 5% or less (almost no effect)) | B: Scirpus juncoides (herbicidal effect grade) [6, 10]: 2 (Herbicidal ratio of 20% or more and less than 40%) | C: Monochoria vaginalis (herbicidal effect grade) [7, 10]: 3 (Herbicidal ratio of 40% or more and less than 70%) | b (directly sowed Oryza sativa) effect on crop grade [8, 12]: 2 (Herbicidal ratio of 20% or more and less than 40%) | P (Stellaria media) herbicidal effect [9]: 4 (Herbicidal ratio of 70% or more and less than 90%)

Cc1nnc(NC(=O)c2ccc(C(F)(F)F)n3c(-c4ccc(F)cc4)nnc23)o1 [1-044]
a: transplanted Oryza sativa (effect on crop grade) [1, 10]: 1 (Herbicidal ratio of 5% or more and less than 20%) | E (Cyperus difformis) herbicidal ratio grade [2, 12]: 4 (Herbicidal ratio of 70% or more and less than 90%) | D (Leptochloa chinensis) herbicidal ratio grade [3, 12]: 4 (Herbicidal ratio of 70% or more and less than 90%) | H (Echinochloa crus-galli var. crus-galli) herbicidal ratio grade [4, 12]: 5 (Herbicidal ratio of 90% or more (almost completely withered)) | A: Echinochloa oryzicola Vasing. (herbicidal effect grade) [5, 10]: 5 (Herbicidal ratio of 90% or more (almost completely withered)) | B: Scirpus juncoides (herbicidal effect grade) [6, 10]: 3 (Herbicidal ratio of 40% or more and less than 70%) | C: Monochoria vaginalis (herbicidal effect grade) [7, 10]: 3 (Herbicidal ratio of 40% or more and less than 70%) | b (directly sowed Oryza sativa) effect on crop grade [8, 12]: 3 (Herbicidal ratio of 40% or more and less than 70%) | P (Stellaria media) herbicidal effect [9]: 4 (Herbicidal ratio of 70% or more and less than 90%)

Cc1nnc(NC(=O)c2ccc(C(F)(F)F)n3c(Br)nnc23)o1 [1-014]
a: transplanted Oryza sativa (effect on crop grade) [1, 10]: 0 (Herbicidal ratio of 5% or less (almost no effect)) | E (Cyperus difformis) herbicidal ratio grade [2, 12]: 4 (Herbicidal ratio of 70% or more and less than 90%) | D (Leptochloa chinensis) herbicidal ratio grade [3, 12]: 2 (Herbicidal ratio of 20% or more and less than 40%) | H (Echinochloa crus-galli var. crus-galli) herbicidal ratio grade [4, 12]: 5 (Herbicidal ratio of 90% or more (almost completely withered)) | A: Echinochloa oryzicola Vasing. (herbicidal effect grade) [5, 10]: 5 (Herbicidal ratio of 90% or more (almost completely withered)) | B: Scirpus juncoides (herbicidal effect grade) [6, 10]: 4 (Herbicidal ratio of 70% or more and less than 90%) | C: Monochoria vaginalis (herbicidal effect grade) [7, 10]: 3 (Herbicidal ratio of 40% or more and less than 70%) | b (directly sowed Oryza sativa) effect on crop grade [8, 12]: 1 (Herbicidal ratio of 5% or more and less than 20%) | P (Stellaria media) herbicidal effect [9]: 5 (Herbicidal ratio of 90% or more (almost completely withered))

COCc1nnc2c(C(=O)Nc3nnc(C)o3)ccc(C(F)(F)F)n12 [1-015]
a: transplanted Oryza sativa (effect on crop grade) [1, 10]: 0 (Herbicidal ratio of 5% or less (almost no effect)) | E (Cyperus difformis) herbicidal ratio grade [2, 12]: 4 (Herbicidal ratio of 70% or more and less than 90%) | D (Leptochloa chinensis) herbicidal ratio grade [3, 12]: 5 (Herbicidal ratio of 90% or more (almost completely withered)) | H (Echinochloa crus-galli var. crus-galli) herbicidal ratio grade [4, 12]: 5 (Herbicidal ratio of 90% or more (almost completely withered)) | A: Echinochloa oryzicola Vasing. (herbicidal effect grade) [5, 10]: 2 (Herbicidal ratio of 20% or more and less than 40%) | B: Scirpus juncoides (herbicidal effect grade) [6, 10]: 3 (Herbicidal ratio of 40% or more and less than 70%) | C: Monochoria vaginalis (herbicidal effect grade) [7, 10]: 3 (Herbicidal ratio of 40% or more and less than 70%) | b (directly sowed Oryza sativa) effect on crop grade [8, 12]: 1 (Herbicidal ratio of 5% or more and less than 20%) | P (Stellaria media) herbicidal effect [9]: 5 (Herbicidal ratio of 90% or more (almost completely withered))

CC(C)c1nnc2c(C(=O)Nc3nnco3)ccc(C(F)(F)F)n12 [1-050]
a: transplanted Oryza sativa (effect on crop grade) [1, 10]: 2 (Herbicidal ratio of 20% or more and less than 40%) | E (Cyperus difformis) herbicidal ratio grade [2, 12]: 5 (Herbicidal ratio of 90% or more (almost completely withered)) | D (Leptochloa chinensis) herbicidal ratio grade [3, 12]: 5 (Herbicidal ratio of 90% or more (almost completely withered)) | H (Echinochloa crus-galli var. crus-galli) herbicidal ratio grade [4, 12]: 5 (Herbicidal ratio of 90% or more (almost completely withered)) | A: Echinochloa oryzicola Vasing. (herbicidal effect grade) [5, 10]: 5 (Herbicidal ratio of 90% or more (almost completely withered)) | B: Scirpus juncoides (herbicidal effect grade) [6, 10]: 5 (Herbicidal ratio of 90% or more (almost completely withered)) | C: Monochoria vaginalis (herbicidal effect grade) [7, 10]: 4 (Herbicidal ratio of 70% or more and less than 90%) | b (directly sowed Oryza sativa) effect on crop grade [8, 12]: 1 (Herbicidal ratio of 5% or more and less than 20%) | P (Stellaria media) herbicidal effect [9]: 5 (Herbicidal ratio of 90% or more (almost completely withered))
